The values that follow are results of earlier work, collected in patent publication EP0084011B1, “Quinoline carboxylic acid complexes with guanidinium carbonate and guanidine” (Merck & Co., Inc., priority 1982, dated 1983).

In brackets after ≈: the same amount, converted by molar mass.

For `CCn1cc(C(=O)O)c(=O)c2cc(F)c(N3CCNCC3)cc21` [Parent, 1-ethyl-6-fluoro-1,4-dihydro-4-oxo-7-(1-piperazinyl)-3-quinoline carboxylic acid], the Solubility (in water, 25 °C, reported water solubility of the parent compound) is 200 µg/mL (≈ 626 µM). The water solubility result (pH range of 6-10, background statement) is listed as “very low water solubility”.

What is called Solubility is how much of the substance goes into solution per volume.
